Where a name gives a salt, the structure may show the parent alone.

For the assay, the target named is T1, 5-HT4 receptor (Cavia porcellus, UniProt O70528).
T1 construct: striatum was isolated which was cryopreserved at −80° C. until use; from tissue; host or cells: guinea pig (Slc-Hartley) striatum membranes
T1 sequence (O70528 whole entry): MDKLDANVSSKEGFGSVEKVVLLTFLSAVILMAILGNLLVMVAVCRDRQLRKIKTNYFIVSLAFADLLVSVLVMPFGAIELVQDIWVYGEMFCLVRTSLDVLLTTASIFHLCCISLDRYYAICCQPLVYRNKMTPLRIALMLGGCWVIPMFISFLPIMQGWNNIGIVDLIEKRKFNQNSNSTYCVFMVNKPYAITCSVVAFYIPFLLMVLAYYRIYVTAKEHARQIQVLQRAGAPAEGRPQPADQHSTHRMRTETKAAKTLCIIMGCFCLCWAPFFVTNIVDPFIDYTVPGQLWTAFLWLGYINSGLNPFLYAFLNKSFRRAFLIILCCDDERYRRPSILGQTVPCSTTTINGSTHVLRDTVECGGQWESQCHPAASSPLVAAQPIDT
Briefly: Test Example 3: Guinea pig 5-HT4 receptor binding assay, [3H]-GR113808, striatum membranes (Table 98). Particulars: Guinea pig 5-HT4 receptor binding assay, [3H]-GR113808, striatum membranes; mean value of each group; read-out: IC50. The procedure: The guinea pig 5-HT4 receptor binding assay and preparations of receptor membrane preparations herein were carried out according to a method of Grossman et al. [see, British J. Pharmacol., (1993) 109, 618].
Slc-Hartley guinea pigs (body weight 300 g to 400 g) were decapitated to remove brain rapidly, and striatum was isolated which was cryopreserved at −80° C. until use. To the obtained tissues were added fifteen fold of Hepes buffer (50 mM, pH 7.4, 4° C.), and the mixture was homogenized by Teflon (trademark) homogenizer and centrifuged at 48,000×g (4° C.) for 15 minutes. To the resulting precipitate was added Hepes buffer (1 ml) to 30 mg by wet weight of tissues, and the mixture was suspended to give receptor membrane preparations.
To an assay tube were added 0.1 nM [^3H]-GR113808 {chemical name: [1-[2-(methylsulfonylamino) ethyl]-4-piperidinyl]methyl 1-methylindole-3-carboxylate}, receptor membrane preparations, and Hepes buffer (50 mM, pH 7.4, 4° C., 1 ml) containing test compounds or 30 μM serotonin; and the mixture was incubated at 37° C. for 30 minutes. On quenching the reaction, the mixture was rapidly filtered on whatman GF/B filter, which was presoaked in 0.1% polyethyleneimine for 1 hour, by using Brandel cell Harvester, and washed with ice-cooled 50 mM Tris-HCl (pH 7.7, 4 ml) three times. To the filter after filtration was added a liquid scintillator (Ecoscint), and then a radioactivity was determined by a liquid scintillation counter.
50% Inhibition concentrations (IC50) were determined from inhibition rates of test compounds to specific bindings which were obtained by subtracting nonspecific bindings from total binding amounts of [^3H]-GR113808. […]
On to “5-methyl-3-(propan-2-yl)-1-{5-[1-(tetrahydro-2H-pyran-4-yl)piperidin-5-yl]-1,2,4-oxadiazol-3-yl}-1H-indazole [Example 428]”, for which the 50% inhibitory concentration (IC50) is 248 nM.

In the case of `CC(C)c1nn(-c2noc(C3CCN(CCCOc4ccccc4)CC3)n2)c2c(F)cccc12` [Example 395, 7-fluoro-1-{5-[1-(3-phenoxypropyl)piperidin-4-yl]-1,2,4-oxadiazol-3-yl}-3-(propan-2-yl)-1H-indazole], the IC50 worked out at 26.9 nM.

Consider `CC(C)c1nn(-c2noc(C3CCN(CCC(=O)c4ccccc4)CC3)n2)c2c(F)cccc12` [Example 396, 3-(4-{3-[7-fluoro-3-(propan-2-yl)-1H-indazol-1-yl]-1,2,4-oxadiazol-5-yl}piperidin-1-yl)-1-phenylpropan-1-one], for which the IC50 is under 20 nM.

As for `COC(=O)CCCN1CCC(c2nc(-n3nc(C(C)C)c4cccc(F)c43)no2)CC1` [Example 397, methyl 4-(4-{3-[7-fluoro-3-(propan-2-yl)-1H-indazol-1-yl]-1,2,4-oxadiazol-5-yl}piperidin-1-yl)butanoate], the IC50 is under 20 nM.

In the case of `CC(C)c1nn(-c2noc(C3CCN(CCC(=O)Nc4ccccc4)CC3)n2)c2c(F)cccc12` [Example 398, 3-(4-{3-[7-fluoro-3-(propan-2-yl)-1H-indazol-1-yl]-1,2,4-oxadiazol-5-yl}piperidin-1-yl)-N-phenylpropanamide], the IC50 is under 20 nM.

For `CC(=O)N1CCC(N2CCC(c3nc(-n4nc(C(C)(C)O)c5cccc(F)c54)no3)CC2)CC1` [Example 403, 1-(4-{3-[7-fluoro-3-(2-hydroxypropan-2-yl)-1H-indazol-1-yl]-1,2,4-oxadiazol-5-yl}-1,4′-bipiperidin-1′-yl)ethanone], the IC50 is 36.1 nM.

As to `COc1ccc2c(C(C)C)nn(-c3noc(C4CCN(C5CCN(C(C)=O)CC5)CC4)n3)c2c1F` [Example 404, 1-(4-{3-[7-fluoro-6-methoxy-3-(propan-2-yl)-1H-indazol-1-yl]-1,2,4-oxadiazol-5-yl}-1,4′-bipiperidin-1′-yl)ethanone], the 50% inhibitory concentration (IC50) was 100 nM.

Take `CC(=O)N1CCC(N2CCC(c3nc(-n4nc(C(F)(F)F)c5cccc(F)c54)no3)CC2)CC1` [Example 406, 1-(4-{3-[7-fluoro-3-(trifluoromethyl)-1H-indazol-1-yl]-1,2,4-oxadiazol-5-yl}-1,4′-bipiperidin-1′-yl)ethanone]: the concentration for half-maximal inhibition (IC50) amounted to 68.7 nM.

With `CC(=O)N1CCC(N2CCC(c3nc(-n4nc(C(C)C)c5c(Cl)cccc54)no3)CC2)CC1` [Example 407, 1-(4-{3-[4-chloro-3-(propan-2-yl)-1H-indazol-1-yl]-1,2,4-oxadiazol-5-yl}-1,4′-bipiperidin-1′-yl)ethanone], the half-inhibitory concentration (IC50) was 101 nM.

Consider `CC(=O)N1CCC(N2CCC(c3nc(-n4nc(C(C)C)c5c(C)cccc54)no3)CC2)CC1` [Example 408, 1-(4-{3-[4-methyl-3-(propan-2-yl)-1H-indazol-1-yl]-1,2,4-oxadiazol-5-yl}-1,4′-bipiperidin-1′-yl)ethanone], for which the half-maximal inhibitory concentration (IC50) turned out to be 29.5 nM.

Regarding `CC(=O)N1CCC(N2CCC(c3nc(-n4nc(C(C)C)c5cc(Cl)ccc54)no3)CC2)CC1` [Example 409, 1-(4-{3-[5-chloro-3-(propan-2-yl)-1H-indazol-1-yl]-1,2,4-oxadiazol-5-yl}-1,4′-bipiperidin-1′-yl)ethanone], the IC50 amounted to 383 nM.

Consider `CC(=O)N1CCC(N2CCC(c3nc(-n4nc(C(C)C)c5cc(C)ccc54)no3)CC2)CC1` [Example 410, 1-(4-{3-[5-methyl-3-(propan-2-yl)-1H-indazol-1-yl]-1,2,4-oxadiazol-5-yl}-1,4′-bipiperidin-1′-yl)ethanone], for which the IC50 turned out to be 323 nM.

On to `CC(=O)N1CCC(N2CCC(c3nc(-n4nc(C(C)C)c5ccc(Cl)cc54)no3)CC2)CC1` [Example 412, 1-(4-{3-[6-chloro-3-(propan-2-yl)-1H-indazol-1-yl]-1,2,4-oxadiazol-5-yl}-1,4′-bipiperidin-1′-yl)ethanone], for which the IC50 came to 140 nM.

With `CC(=O)N1CCC(N2CCC(c3nc(-n4nc(C(C)C)c5cccc(C)c54)no3)CC2)CC1` [Example 413, 1-(4-{3-[7-methyl-3-(propan-2-yl)-1H-indazol-1-yl]-1,2,4-oxadiazol-5-yl}-1,4′-bipiperidin-1′-yl)ethanone], the IC50 was under 20 nM.

Consider `COc1cccc2c(C(C)C)nn(-c3noc(C4CCN(C5CCN(C(C)=O)CC5)CC4)n3)c12` [Example 414, 1-(4-{3-[7-methoxy-3-(propan-2-yl)-1H-indazol-1-yl]-1,2,4-oxadiazol-5-yl}-1,4′-bipiperidin-1′-yl)ethanone], for which the IC50 amounted to 86.9 nM.

Turning to `CC(=O)N1CCC(N2CCC(c3nc(-n4nc(C(C)C)c5cccc(F)c54)no3)C2)CC1` (stereo not drawn) [Example 415, 1-[4-(3-{3-[7-fluoro-3-(propan-2-yl)-1H-indazol-1-yl]-1,2,4-oxadiazol-5-yl}pyrrolidin-1-yl)piperidin-1-yl]ethanone], the IC50 was under 20 nM.

`CC(=O)N1CCC(N2CCC(Cc3nc(-n4nc(C(C)C)c5cccc(F)c54)no3)CC2)CC1` [Example 417, 1-[4-({3-[7-fluoro-3-(propan-2-yl)-1H-indazol-1-yl]-1,2,4-oxadiazol-5-yl}methyl)-1,4′-bipiperidin-1′-yl]ethanone]: the IC50 came to 36 nM.

Turning to `CC(C)c1nn(-c2noc(C3CCN(C4CCC4)CC3)n2)c2cccc(Cl)c12` [Example 421, 4-chloro-1-[5-(1-cyclobutylpiperidin-4-yl)-1,2,4-oxadiazol-3-yl]-3-(propan-2-yl)-1H-indazole], the half-inhibitory concentration (IC50) stood at 129 nM.

For the compound `CC(C)c1nn(-c2noc(C3CCN(C4CCOCC4)CC3)n2)c2cccc(Cl)c12` [Example 422, 4-chloro-3-(propan-2-yl)-1-{5-[1-(tetrahydro-2H-pyran-4-yl)piperidin-4-yl]-1,2,4-oxadiazol-3-yl}-1H-indazole], the IC50 was found to be 55 nM.

With `Cc1ccc2c(c1)c(C(C)C)nn2-c1noc(C2CCN(C3CCC3)CC2)n1` [Example 427, 1-[5-(1-cyclobutylpiperidin-4-yl)-1,2,4-oxadiazol-3-yl]-5-methyl-3-(propan-2-yl}-1H-indazole], the concentration for half-maximal inhibition (IC50) worked out at 339 nM.

For the compound `CC(C)c1nn(-c2noc(C3CCN(C4CCC4)CC3)n2)c2cc(Cl)ccc12` [Example 431, 6-chloro-1-[5-(1-cyclobutylpiperidin-4-yl)-1,2,4-oxadiazol-3-yl]-3-(propan-2-yl)-1H-indazole], the IC50 amounted to 130 nM.

As to `Cc1ccc2c(C(C)C)nn(-c3noc(C4CCN(C5CCC5)CC4)n3)c2c1` [Example 433, 1-[5-(1-cyclobutylpiperidin-4-yl)-1,2,4-oxadiazol-3-yl]-6-methyl-3-(propan-2-yl)-1H-indazole], the half-inhibitory concentration (IC50) was 65 nM.

As for `CCc1nn(-c2noc(C3CCN(C4CCC4)CC3)n2)c2cc(C)ccc12` [Example 434, 1-[5-(1-cyclobutylpiperidin-4-yl)-1,2,4-oxadiazol-3-yl]-3-ethyl-6-methyl-1H-indazole trifluoroacetate], the half-maximal inhibitory concentration (IC50) stood at 20.8 nM.

`Cc1ccc2c(C(C)C)nn(-c3noc(C4CCN(CC5CCOCC5)CC4)n3)c2c1` [Example 436, 6-methyl-3-(propan-2-yl)-1-{5-[1-(tetrahydro-2H-pyran-4-ylmethyl)piperidin-4-yl]-1,2,4-oxadiazol-3-yl}-1H-indazole trifluoroacetate]: the IC50 was 179 nM.

On to `CCc1nn(-c2noc(C3CCN(C4CCOCC4)CC3)n2)c2cc(C)ccc12` [Example 437, 3-ethyl-6-methyl-1-{5-[1-(tetrahydro-2H-pyran-4-yl)piperidin-4-yl)-1,2,4-oxadiazol-3-yl}-1H-indazole trifluoroacetate], for which the IC50 came out at 113 nM.

As for `COc1cccc2c(C(C)C)nn(-c3noc(C4CCN(C5CCC5)CC4)n3)c12` [Example 440, 1-[5-(1-cyclobutylpiperidin-4-yl)-1,2,4-oxadiazol-3-yl]-7-methoxy-3-(propan-2-yl)-1H-indazole], the half-maximal inhibitory concentration (IC50) worked out at 104 nM.

`COc1cccc2c(C(C)C)nn(-c3noc(C4CCN(C5CCOCC5)CC4)n3)c12` [Example 441, 7-methoxy-3-(propan-2-yl)-1-{5-[1-(tetrahydro-2H-pyran-4-yl)piperidin-4-yl]-1,2,4-oxadiazol-3-yl}-1H-indazole]: the IC50 amounted to 78.2 nM.

Consider `CC(C)c1nn(-c2noc(C3CCN(C4CCC(F)(F)CC4)CC3)n2)c2c(F)cccc12` [Example 442, 1-{5-[1-(4,4-difluorocyclohexyl)piperidin-4-yl]-1,2,4-oxadiazol-3-yl}-7-fluoro-3-(propan-2-yl)-1H-indazole], for which the IC50 is under 20 nM.

For the compound `CC(C)c1nn(-c2noc(C3CCN(C4CC[S+]([O-])CC4)CC3)n2)c2c(F)cccc12` (stereo not drawn) [Example 443, 7-fluoro-1-{5-[1-(1-oxidotetrahydro-2H-thiopyran-4-yl)piperidin-4-yl]-1,2,4-oxadiazol-3-yl}-3-(propan-2-yl)-1H-indazole], the concentration for half-maximal inhibition (IC50) is 18.1 nM.

For the compound `CCc1nn(-c2noc(C3CCN(C4CCC4)CC3)n2)c2c(F)c(F)ccc12` [Example 446, 1-[5-(1-cyclobutylpiperidin-4-yl)-1,.2,4-oxadiazol-3-yl]-3-ethyl-6,7-difluoro-1H-indazole-trifluoroacetate], the half-inhibitory concentration (IC50) was under 20 nM.

These data come from patent US20140057895A1, “INDAZOLE- AND PYRROLOPYRIDINE-DERIVATIVE AND PHARMACEUTICAL USE THEREOF” (priority 2011, published 2014).
